Reference: the supplement of paper PMC10307832

What was measured:
Assay in all cases: relative viability (nuclei count vs DMSO), 5 days (fraction); higher = more cells survive
[1] = compound: CC1=CC(=NN1)NC2=CC(=NC(=N2)/C=C/C3=CC=CC=C3)N4CCN(CC4)C + CC(=O)c1c(C)c2cnc(Nc3ccc(N4CCNCC4)cn3)nc2n(C2CCCC2)c1=O [Palbociclib] (partner 0.5 µM)
How it was run: (§1)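 A single step with final 0.05% Triton X-100, 1% formaldehyde and 1 ug/ml Hoechst fixed the cells and stained nuclei 5 days after treatment. Lung cancer cell lines in 1536-well plates had been treated by pin tool the day after seeding with one drug alone or a fixed anchor-drug dose plus five library-drug doses (not always all listed) in √10 steps, and nuclei were counted on 4× images. Relative viability is the ratio of nuclei in treated wells to nuclei in vehicle wells, taken as the median of duplicate plates.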

[2] = compound: CC(C)C[C@H](NC(=O)[C@H](Cc1ccccc1)NC(=O)c1cnccn1)B(O)O [Bortezomib] + N=C(N)NC(=N)NCCc1ccccc1 [Phenformin] (partner 250 µM)
How it was run: as §1

[3] = compound: CC(C)C[C@H](NC(=O)[C@H](Cc1ccccc1)NC(=O)c1cnccn1)B(O)O [Bortezomib] + Cc1nc(NC(=O)N2CCC[C@H]2C(N)=O)sc1-c1ccnc(C(C)(C)C(F)(F)F)c1 [Alpelisib] (partner 2 µM)
How it was run: as §1

[4] = compound: CC(C)C[C@H](NC(=O)[C@H](Cc1ccccc1)NC(=O)c1cnccn1)B(O)O [Bortezomib] + CC(=O)Nc1cccc(-n2c(=O)n(C3CC3)c(=O)c3c(Nc4ccc(I)cc4F)n(C)c(=O)c(C)c32)c1 [Trametinib] (partner 0.02 µM)
How it was run: as §1

Cell Line	relative viability ([1]; first compound 0.08 µM)	relative viability ([1]; first compound 0.253 µM)	relative viability ([1]; first compound 0.8 µM)	relative viability ([1]; first compound 2.53 µM)	relative viability ([1]; first compound 8 µM)	relative viability ([2]; first compound 0.0002 µM)	relative viability ([2]; first compound 0.000632 µM)	relative viability ([2]; first compound 0.002 µM)	relative viability ([2]; first compound 0.006325 µM)	relative viability ([2]; first compound 0.02 µM)	relative viability ([3]; first compound 0.0002 µM)	relative viability ([3]; first compound 0.000632 µM)	relative viability ([3]; first compound 0.002 µM)	relative viability ([3]; first compound 0.006325 µM)	relative viability ([3]; first compound 0.02 µM)	relative viability ([4]; first compound 0.0002 µM)	relative viability ([4]; first compound 0.000632 µM)	relative viability ([4]; first compound 0.002 µM)	relative viability ([4]; first compound 0.006325 µM)	relative viability ([4]; first compound 0.02 µM)
201T	0.345	0.358	0.359	0.33	0.197	0.456	0.402	0.483	0.44	0.24	1.03	0.993	0.975	0.951	0.31	0.732	0.72	0.685	0.625	0.262
A549						0.154	0.231	0.18	0.0502	0.0365	0.769	0.706	0.756	0.055	0.0365					
A-427	0.58	0.518	0.51	0.454	0.201	0.253	0.246	0.339	0.212	0.11	0.991	1.03	1.05	1.11	0.0762	0.657	0.842	0.696	0.216	0.161
ABC-1	0.668	0.633	0.934	0.636	0.227	0.231	0.227	0.202	0.186	0.175	1	1.08	0.372	0.233	0.245					
BEN	0.421	0.459	0.511	0.437	0.328	0.258	0.266	0.264	0.259	0.174	0.925	1.09	0.72	0.614	0.154	0.856	0.953	0.87	0.829	0.29
CAL-12T	0.412	0.335	0.466	0.185	0.119	0.552	0.585	0.586	0.25	0.114	1.26	1.05	1.11	0.175	0.115	0.378	0.335	0.327	0.156	0.133
COR-L23	0.315	0.33	0.24	0.127	0.0777	0.466	0.429	0.4	0.0535	0.0571	0.825	0.698	0.444	0.0416	0.0432	0.478	0.586	0.704	0.0593	0.06
COR-L 105	0.432	0.381	0.406	0.275	0.323	0.542	0.4	0.428	0.328	0.256	0.911	1.04	0.909	0.237	0.227	0.449	0.42	0.414	0.375	0.376
Calu-6											0.961	1.01	1.04	0.123	0.0909					
ChaGo-K-1	0.756	0.952	0.933	0.378	0.17	0.416	0.455	0.45	0.462	0.153						0.882	0.89	0.85	0.279	0.144
EBC-1											0.869	0.727	0.29	0.126	0.0969					
EKVX	0.414	0.465	0.362	0.301	0.144	0.238	0.237	0.238	0.239	0.139	0.94	0.934	0.932	0.733	0.0816	0.345	0.38	0.208	0.174	0.0845
EMC-BAC-2	0.519	0.543	0.504	0.454	0.273	0.551	0.459	0.477	0.209	0.211	0.657	0.73	0.788	0.17	0.117	1.02	1.01	0.803	0.341	0.307
EPLC-272H	0.299	0.342	0.319	0.291	0.204	0.353	0.245	0.35	0.109	0.0723			1.09	0.943	0.115	0.324	0.279	0.233	0.073	0.0585
H3255	0.322	0.319	0.345	0.313	0.267	0.368	0.346	0.334	0.307	0.288	0.688	0.696	0.479	0.156	0.163	0.593	0.69	0.331	0.239	0.274
HARA	0.296	0.31	0.266	0.174	0.103	0.374	0.447	0.512	0.222	0.0528	0.808	0.673	0.949	0.0583	0.0865	0.642	0.592	0.896	0.0979	0.189
HCC-15	0.743	0.771	0.716	0.347	0.114	0.44	0.448	0.458	0.0952	0.0863	0.845	0.911	0.833	0.307	0.0846	0.39	0.394	0.426	0.117	0.104
HCC-44	0.984	0.946	0.952	1.01	0.644	0.195	0.194	0.204	0.162	0.111	0.831	0.776	0.84	0.0994	0.115	1.1	1.04	0.984	0.92	0.277
HCC-78	0.469	0.439	0.546	0.398	0.338	0.699	0.641	0.676	0.712	0.364	0.331	0.359	0.258	0.136	0.148	0.799	0.699	0.312	0.196	0.233
